From ChEMBL document CHEMBL1201862, “PubChem BioAssay data set” (2004)
Calls of active or inactive are those of the source.

Legend:
Serine hydrolase RBBP9 = Serine hydrolase RBBP9 (Homo sapiens, UniProt O75884); assay: RBBP9 hydrolase inhibition, IC50 by ABPP – biochemical, gel-based ABPP, late-stage follow-up, panel member Panel member description: RBBP9 IC50 Gel-based ABPP Assay (AID 2254)
HEK293 [1] = assay: Cytotoxicity assay in HEK293 cells. [Related pubchem assays (depositor defined):AID1266, AID1269, AID1270, AID1271, AID1280, AID1281, AID1282, AID1283, AID1287, AID1289, AID1290, AID1291, AID1292, AID1293, AID1294, AID1295, AID1299, AID1302, AID1364, AID1365, AID1366, AID1367, AID1369, AID1370, AID1371, AID1372, AID1373, AID1374, AID1375, AID1384 …; format: functional, cell-based; conditions: Homo sapiens
HEK293 [2] = assay: PMA/Ionomycin induced NF-kB luciferase assay in 293- NF-kB-Luc stable cells. [Related pubchem assays: 1299, 1270, 1295, 1375, 1287, 1281, 1293, 1291, 1289, 1280, 465, 1364, 1282, 1372, 1365, 1370, 1367, 1366, 1269, 1373, 1292, 1290, 1302, 1371, 1283, 1271, 1294, 1374, 1368, 1369 ]; format: functional, cell-based; conditions: Homo sapiens
HEK293 [3] = assay: TNF Induced NF-kB Luciferase in 293-NF-kB-Luc Stable Cells. [Related pubchem assays: 1266, 1299, 1269, 1373, 1292, 1290, 1302, 1371, 1283, 1270, 1295, 1271, 1375, 1294, 1374, 1281, 1293, 1291, 1289, 1280, 465, 1368, 1364, 1282, 1372, 1365, 1369, 1370, 1367, 1366 ]; format: functional, cell-based; conditions: Homo sapiens
[4] = target: Luciferin 4-monooxygenase (Photinus pyralis, UniProt P08659); assay: In vitro luciferase assay using purified luciferase. [Related pubchem assays: 1299, 1270, 1295, 1375, 1287, 1281, 1293, 1291, 1289, 1280, 465, 1364, 1282, 1372, 1365, 1370, 1367, 1366, 1266, 1373, 1292, 1290, 1302, 1371, 1283, 1271, 1294, 1374, 1368, 1369 ]
Chain of Luciferin 4-monooxygenase (P08659 whole entry): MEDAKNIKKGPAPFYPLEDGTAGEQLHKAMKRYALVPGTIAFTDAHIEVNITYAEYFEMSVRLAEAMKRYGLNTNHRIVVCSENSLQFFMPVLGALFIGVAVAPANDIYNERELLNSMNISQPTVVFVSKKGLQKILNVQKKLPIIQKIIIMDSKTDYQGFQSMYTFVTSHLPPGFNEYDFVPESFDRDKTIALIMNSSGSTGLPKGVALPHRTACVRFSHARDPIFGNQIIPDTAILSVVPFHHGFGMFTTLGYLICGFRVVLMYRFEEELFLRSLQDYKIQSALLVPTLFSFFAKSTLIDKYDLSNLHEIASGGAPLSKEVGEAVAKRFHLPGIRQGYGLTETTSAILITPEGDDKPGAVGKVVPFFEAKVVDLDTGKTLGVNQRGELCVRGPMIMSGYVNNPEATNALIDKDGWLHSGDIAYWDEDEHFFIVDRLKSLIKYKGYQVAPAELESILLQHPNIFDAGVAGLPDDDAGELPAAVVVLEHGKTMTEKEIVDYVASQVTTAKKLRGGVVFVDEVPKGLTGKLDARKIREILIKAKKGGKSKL

[5] = target: T1, Heat shock factor protein 1 (Mus musculus, UniProt P38532); assay: enhancement of HSF1-driven luciferase signal – cell-based, NIH3T3, luminescence, dose retest, confirmation (AID 435004); format: functional;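 note: stress induced by proteasome inhibitor MG132 added 30 min after compound; luciferase reporter driven by HSF1 response element in NIH3T3 cells; actives raise luminescence as potentiators of the MG132 stress response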
T1 sequence (P38532 whole entry): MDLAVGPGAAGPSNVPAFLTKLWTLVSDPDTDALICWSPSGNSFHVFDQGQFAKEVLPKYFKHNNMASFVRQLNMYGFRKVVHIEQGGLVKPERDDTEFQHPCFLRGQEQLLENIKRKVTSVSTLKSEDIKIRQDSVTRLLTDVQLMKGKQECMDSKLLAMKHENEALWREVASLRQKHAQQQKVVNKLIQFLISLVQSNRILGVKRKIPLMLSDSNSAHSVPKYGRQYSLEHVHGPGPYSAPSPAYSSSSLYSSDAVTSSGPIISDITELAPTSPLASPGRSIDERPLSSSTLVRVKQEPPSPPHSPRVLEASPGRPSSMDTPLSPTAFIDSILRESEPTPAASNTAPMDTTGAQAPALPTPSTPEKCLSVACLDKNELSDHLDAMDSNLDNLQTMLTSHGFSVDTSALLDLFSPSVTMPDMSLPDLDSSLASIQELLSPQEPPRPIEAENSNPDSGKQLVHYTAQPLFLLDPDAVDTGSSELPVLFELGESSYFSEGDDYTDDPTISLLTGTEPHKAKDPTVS

[6] = DRD fibroblast viability loss – cell-based, non-viral oncogenic, luminescence, dose response (AID 1934); format: functional; conditions: Homo sapiens
Streptokinase A = target: T2, Streptokinase A (Streptococcus pyogenes serotype M1, UniProt P10520); assay: viability-normalized secreted streptokinase activity reduction – plasminogen activation absorbance, OD405, dose response (AID 1914); format: functional, Streptococcus pyogenes M1 GAS;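 note: secreted streptokinase activity via plasminogen activation per viability signal from cell pellet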
T2 sequence (P10520 whole entry): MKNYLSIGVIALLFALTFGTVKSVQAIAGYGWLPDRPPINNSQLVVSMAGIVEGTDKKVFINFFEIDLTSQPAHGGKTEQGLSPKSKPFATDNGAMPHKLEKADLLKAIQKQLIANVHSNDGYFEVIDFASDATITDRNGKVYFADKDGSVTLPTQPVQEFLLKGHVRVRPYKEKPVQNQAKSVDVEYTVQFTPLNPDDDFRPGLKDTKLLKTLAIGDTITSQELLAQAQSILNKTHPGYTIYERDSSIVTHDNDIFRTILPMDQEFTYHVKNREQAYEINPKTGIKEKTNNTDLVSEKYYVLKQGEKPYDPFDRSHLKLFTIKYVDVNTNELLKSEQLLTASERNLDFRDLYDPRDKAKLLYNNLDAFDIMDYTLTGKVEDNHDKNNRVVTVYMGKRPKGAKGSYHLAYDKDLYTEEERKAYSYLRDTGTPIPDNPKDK

BJ [7] = assay: BJ-TERT fibroblast viability loss – cell-based, RAS-independent, luminescence, dose response (AID 1933); format: functional; conditions: Homo sapiens
[8] = target: T3, Kappa-type opioid receptor (Homo sapiens, UniProt P41145); format: functional
T3 sequence (P41145 whole entry): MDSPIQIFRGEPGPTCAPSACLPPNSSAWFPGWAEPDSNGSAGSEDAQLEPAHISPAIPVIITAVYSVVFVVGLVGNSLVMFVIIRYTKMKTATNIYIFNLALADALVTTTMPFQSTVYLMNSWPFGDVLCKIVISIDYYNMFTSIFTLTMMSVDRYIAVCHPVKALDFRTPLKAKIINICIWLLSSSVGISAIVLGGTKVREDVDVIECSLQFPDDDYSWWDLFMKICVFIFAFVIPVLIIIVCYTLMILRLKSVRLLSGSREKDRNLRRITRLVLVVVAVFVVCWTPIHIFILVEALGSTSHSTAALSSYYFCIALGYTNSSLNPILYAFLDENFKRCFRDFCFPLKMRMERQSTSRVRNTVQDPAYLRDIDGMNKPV

BJ [9] = assay: BJ-TERT-LT-ST fibroblast viability loss – cell-based, RAS-independent, luminescence, dose response (AID 1935); format: functional; conditions: Homo sapiens;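 note: BJ fibroblasts immortalized with TERT plus LT and ST oncogenes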
[10] = alpha-synuclein stem-loop luciferase translation blockers – H4 neuroglioma cells, luminescence, confirmation (AID 1988); format: functional, cell-based
[11] = target: T3, Kappa-type opioid receptor; format: functional; remark: listed apart in the source
BJ [12] = assay: growth inhibition of engineered Ras-driven BJ cells – cell-based, alamar blue fluorescence, cherrypicked samples, dose response (AID 2631); format: functional; conditions: Homo sapiens;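 note: confirmatory dose-response assay in RAS-dependent BJ fibroblasts engineered with TERT, LT and ST, with cytotoxicity read by fluorescence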
[13] = Luminescence Cell-Based Dose Response HTS to Identify Inhibitors of 5'UTR Stem-Loop Driven Prion Protein mRNA Translation in H4 Neuroglioblastoma Cells. [Related pubchem assays: 1827 (Project Summary), 1813 (Primary HTS)]; format: functional
[14] = Counterscreen for AddAB inhibitors: absorbance-based bacterial cell-based high throughput dose response assay for inhibitors of bacterial viability. [Related pubchem assays (depositor defined):AID435030, AID449728, AID449731, AID488942, AID488955, AID488956]; format: functional
BJ [15] = assay: cells; format: functional, cell-based; conditions: Homo sapiens
Streptococcus = assay: GAS UMAA2166 growth inhibition – luminescence, BacTiterGlo, counter-screen for streptokinase expression inhibitor project, dose response (AID 1915); format: functional, organism-based;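 note: potency for reduction of bacterial viability or growth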
Ephrin type-A receptor 4 = Ephrin type-A receptor 4 (Mus musculus, UniProt Q03137); assay: EphA4 ligand-binding antagonists – biochemical, colorimetric, mouse EphA4, primary screen (AID 689); format: functional
Chain of Ephrin type-A receptor 4 (Q03137 whole entry): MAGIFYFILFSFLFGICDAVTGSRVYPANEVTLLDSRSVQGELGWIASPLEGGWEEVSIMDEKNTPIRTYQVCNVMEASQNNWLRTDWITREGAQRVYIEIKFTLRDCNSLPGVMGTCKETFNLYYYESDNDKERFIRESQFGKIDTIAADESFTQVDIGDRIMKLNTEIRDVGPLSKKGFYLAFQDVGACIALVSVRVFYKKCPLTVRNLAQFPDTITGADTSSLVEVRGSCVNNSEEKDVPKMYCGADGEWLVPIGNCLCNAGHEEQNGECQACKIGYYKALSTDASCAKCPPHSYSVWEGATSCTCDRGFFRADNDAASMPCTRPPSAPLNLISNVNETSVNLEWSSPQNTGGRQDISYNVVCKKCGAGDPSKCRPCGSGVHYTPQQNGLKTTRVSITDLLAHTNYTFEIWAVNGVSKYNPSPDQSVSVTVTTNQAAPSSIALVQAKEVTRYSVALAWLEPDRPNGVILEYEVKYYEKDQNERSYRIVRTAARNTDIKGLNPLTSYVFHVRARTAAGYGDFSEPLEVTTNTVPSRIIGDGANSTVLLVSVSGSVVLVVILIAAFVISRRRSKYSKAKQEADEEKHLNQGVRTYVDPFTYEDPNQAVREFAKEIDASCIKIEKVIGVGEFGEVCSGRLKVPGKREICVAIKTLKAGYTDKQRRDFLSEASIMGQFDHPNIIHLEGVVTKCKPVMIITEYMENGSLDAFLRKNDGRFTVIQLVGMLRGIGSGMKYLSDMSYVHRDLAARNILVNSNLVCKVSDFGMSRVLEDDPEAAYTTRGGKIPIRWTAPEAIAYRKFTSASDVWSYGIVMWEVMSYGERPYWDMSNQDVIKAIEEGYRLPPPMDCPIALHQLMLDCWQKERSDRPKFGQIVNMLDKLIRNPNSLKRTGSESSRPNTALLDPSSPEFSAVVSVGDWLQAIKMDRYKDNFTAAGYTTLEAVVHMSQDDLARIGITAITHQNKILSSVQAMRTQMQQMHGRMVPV

Exodeoxyribonuclease V = Exodeoxyribonuclease V (Escherichia coli (strain K12), UniProt P04993+P07648+P08394); assay: RecBCD inhibition via phage-restricted bacterial growth – absorbance, V66 E. coli, mutant T4 phage, counter-screen for AddAB inhibitor project, dose response (AID 492957); format: functional, cell-based, Escherichia coli str. K-12 substr. MG1655
Beta-galactosidase = Beta-galactosidase (Escherichia coli, UniProt Q8VNN2); format: functional
Chain of Beta-galactosidase (Q8VNN2 whole entry): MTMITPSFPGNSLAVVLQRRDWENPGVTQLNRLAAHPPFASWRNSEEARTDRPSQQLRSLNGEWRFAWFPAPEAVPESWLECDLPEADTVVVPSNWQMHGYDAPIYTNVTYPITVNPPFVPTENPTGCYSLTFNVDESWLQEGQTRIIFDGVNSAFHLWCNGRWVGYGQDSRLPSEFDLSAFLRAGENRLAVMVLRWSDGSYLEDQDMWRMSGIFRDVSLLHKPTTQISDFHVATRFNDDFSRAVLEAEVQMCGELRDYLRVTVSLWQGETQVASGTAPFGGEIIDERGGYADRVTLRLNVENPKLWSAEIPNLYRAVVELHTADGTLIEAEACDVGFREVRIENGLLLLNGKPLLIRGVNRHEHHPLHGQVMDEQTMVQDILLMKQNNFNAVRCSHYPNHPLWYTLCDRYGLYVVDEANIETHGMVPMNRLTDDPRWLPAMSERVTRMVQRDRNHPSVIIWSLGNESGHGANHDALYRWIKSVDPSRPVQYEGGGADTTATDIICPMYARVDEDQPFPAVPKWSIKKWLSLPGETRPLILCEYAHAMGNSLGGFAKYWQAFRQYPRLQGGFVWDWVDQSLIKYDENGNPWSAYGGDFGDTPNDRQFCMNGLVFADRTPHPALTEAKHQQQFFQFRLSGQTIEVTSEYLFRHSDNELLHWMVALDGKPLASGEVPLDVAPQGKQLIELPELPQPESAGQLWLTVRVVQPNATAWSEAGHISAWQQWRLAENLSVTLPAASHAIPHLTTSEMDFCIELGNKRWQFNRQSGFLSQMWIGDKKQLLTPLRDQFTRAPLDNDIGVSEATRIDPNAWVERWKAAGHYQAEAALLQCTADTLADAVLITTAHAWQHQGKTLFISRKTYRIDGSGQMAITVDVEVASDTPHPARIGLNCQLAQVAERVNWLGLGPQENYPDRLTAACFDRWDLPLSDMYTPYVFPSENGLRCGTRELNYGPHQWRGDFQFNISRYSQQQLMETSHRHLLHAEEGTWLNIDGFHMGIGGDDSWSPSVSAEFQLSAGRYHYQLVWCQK

[16] = tested on: Streptococcus sp. 'group A'; assay: Streptococcus pyogenes SK(-)GAS viability under kanamycin – luminescence, BacTiterGlo, confirmation, counter-screen for streptokinase expression inhibitor project, dose response (AID 1900); format: functional, organism-based
cells [17] = format: functional, cell-based
cells [18] = format: functional, cell-based; remark: listed apart in the source
INS1 = assay: INS-1E survival protection against cytokine death – cell-based, luminescence, retest, dose response (AID 449756); format: functional; conditions: Rattus norvegicus;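 note: cell death triggered by IL-1 beta plus TNF-alpha plus IFN-gamma mixture; protective hits raise ATP signal compared with cytokine alone wells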
[19] = viability of PTEN-deleted HCT116 cells – cell-based, HCT116 PTEN knockout, dose response (AID 1047); format: functional;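 note: HCT116 colon tumor cells with PTEN knocked out; cells exposed to compound for 60 hours before readout; potency for loss of cell viability measured by luminescence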
[20] = viability of HCT116 lacking mutant beta-catenin – cell-based, human colon tumor, dose response (AID 1045); format: functional;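 note: HCT116 colon tumor cells with beta catenin knocked out; cells exposed to compound for 60 hours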
X-box-binding protein 1 = X-box-binding protein 1 (Homo sapiens, UniProt P17861); format: functional, Cricetulus griseus;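 note: confirmatory dose-response counter-screen serving a CHOP assay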
Chain of X-box-binding protein 1 (P17861 whole entry): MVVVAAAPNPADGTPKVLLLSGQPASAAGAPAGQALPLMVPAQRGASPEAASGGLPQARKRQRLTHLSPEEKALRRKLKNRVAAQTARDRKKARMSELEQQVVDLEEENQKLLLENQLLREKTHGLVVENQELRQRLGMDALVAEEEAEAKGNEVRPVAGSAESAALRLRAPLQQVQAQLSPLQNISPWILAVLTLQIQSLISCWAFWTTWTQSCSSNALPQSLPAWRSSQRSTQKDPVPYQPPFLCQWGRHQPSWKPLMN

CAAX prenyl protease 2 = target: T4, CAAX prenyl protease 2 (Saccharomyces cerevisiae S288c, UniProt Q03530); format: biochemical
T4 sequence (Q03530 whole entry): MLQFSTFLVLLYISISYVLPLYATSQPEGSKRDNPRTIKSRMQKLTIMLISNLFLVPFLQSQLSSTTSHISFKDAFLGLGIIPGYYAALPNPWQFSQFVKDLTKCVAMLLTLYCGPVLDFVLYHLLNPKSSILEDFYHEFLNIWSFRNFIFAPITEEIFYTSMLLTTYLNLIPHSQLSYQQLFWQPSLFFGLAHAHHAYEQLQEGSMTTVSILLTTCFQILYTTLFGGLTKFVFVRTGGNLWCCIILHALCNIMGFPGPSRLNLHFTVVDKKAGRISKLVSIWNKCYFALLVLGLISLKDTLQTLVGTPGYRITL

Trypsin = Trypsin (Sus scrofa, UniProt P00761); assay: trypsin protease activity blockade – biochemical, quenched peptide fluorescence, cherry-pick, selectivity assay for Rce1 protease inhibitor project, dose response (AID 488789)
Chain of Trypsin (P00761 whole entry): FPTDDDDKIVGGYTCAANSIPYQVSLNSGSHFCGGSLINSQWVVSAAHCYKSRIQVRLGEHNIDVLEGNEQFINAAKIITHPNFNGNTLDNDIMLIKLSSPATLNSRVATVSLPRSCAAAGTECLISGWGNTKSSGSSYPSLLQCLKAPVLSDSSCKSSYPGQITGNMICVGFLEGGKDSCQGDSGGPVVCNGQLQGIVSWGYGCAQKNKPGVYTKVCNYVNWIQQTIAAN

Chain of Serine hydrolase RBBP9 (O75884 whole entry): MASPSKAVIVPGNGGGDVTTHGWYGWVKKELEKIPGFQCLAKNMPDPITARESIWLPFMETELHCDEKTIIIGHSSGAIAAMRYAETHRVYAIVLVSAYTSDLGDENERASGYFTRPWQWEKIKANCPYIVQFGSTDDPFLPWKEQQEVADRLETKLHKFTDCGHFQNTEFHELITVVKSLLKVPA

C/C(=N\OC(=O)c1ccccc1)c1nccs1
IC50 (Serine hydrolase RBBP9): 5 µM (active)

COc1ccc2ccccc2c1C(=O)/C=C/c1cccnc1
EC50 (HEK293 [1]): 8.48 µM (inactive) | EC50 (HEK293 [2]): 0.644 µM (active) | EC50 (HEK293 [3]): 3.5 µM (active) | EC50 [4]: > 8 µM (not active)

Oc1c(N=Nc2ccccn2)ccc2ccccc12
EC50 [5]: 9.82 µM (active) | EC50 [6]: 3.59 µM (active) | EC50 (Streptokinase A): > 150 µM (not active) | EC50 (BJ [7]): 2.8 µM (active) | IC50 [8]: > 32 µM | EC50 (BJ [9]): 2.99 µM (inconclusive) | EC50 [10]: 7.46 µM (active) | IC50 [11]: 2.32 µM (active) | EC50 (BJ [12]): 2.84 µM (active) | EC50 [13]: 9.75 µM (active) | IC50 [14]: > 119 µM (inactive) | EC50 (BJ [15]): 2.76 µM (inconclusive) | EC50 (Streptococcus): 25.1 µM (active) | IC50 (Ephrin type-A receptor 4): 13.8 µM (active) | IC50 (Exodeoxyribonuclease V): > 119 µM (inactive) | EC50 (Beta-galactosidase): 14.5 µM (active) | EC50 [16]: 2.67 µM (active) | EC50 (cells [17]): > 350 µM (not active) | EC50 (cells [18]): 6.46 µM (active) | AC50 (INS1): 0.375 µM (active)

NC(N)=C1C(=O)N(C2CCCCC2)C(=O)N(C2CCCCC2)C1=O
EC50 [19]: 24 µM (active) | EC50 [20]: 25.5 µM (active) | Absolute IC50 (XBP1) (X-box-binding protein 1): 10 µM

O=C1c2cccc(OCC(=O)N3N=C(c4cccs4)CC3c3ccc(F)cc3)c2CCN1Cc1cccnc1 (stereo not given)
AC50 (CAAX prenyl protease 2): 13.1 µM (active) | AC50 (Trypsin): 12.9 µM (active)
